Test results as given in patent US20210061859A1, “NTCP Inhibitor” (The University of Tokyo, priority 2018, published 2021).
Values after ≈ are worked out from the molar mass of the structure shown. Where a SMILES comes first, the peptide text is derived from it. Bridges are numbered along the chain shown (N, C = ends). [ ]: non-standard residue; d: D form. Sar = CNCC(=O)O

Key:
[1] = test system: HBV genotype D; assay: HBV infection assay in HepG2-hNTCP-C4 cells (HBs and HBc antigens); type: cell-based, hepatitis B virus; conditions: 100 nM entecavir
Experimental: HBs antigen secreted into a culture supernatant (a) and HBc antigen in the cells (b) were detected by ELISA and an immunofluorescence method, respectively. A cell survival rate was measured by quantifying total cellular DNA (c). The staining images of (b) each show the HBc antigen and the nucleus. […] HBs antigen secreted into a culture supernatant was detected by ELISA. Data is indicated by mean±SD. Statistical significance was determined by use of Student's t test as to all numbers (*P<0.05, **P<0.01, N.S.: not significant). […]
HBs antigen was quantified by enzyme-linked immunosorbent assay (ELISA) as described in a known method (the method described in Watashi, K. et al. Interleukin-1 and tumor necrosis factor-alpha trigger restriction of hepatitis B virus infection via a cytidine deaminase activation-induced cytidine deaminase (AID). The Journal of biological chemistry 288, 31715-31727 (2013)). […]
After HBV inoculation, HBs antigen was measured in a culture supernatant, and HBc antigen was evaluated in the cells to confirm HBV infection, as shown in FIG. 2(a).

[2] = target: human NTCP on cells (HepG2-hNTCP-C4 cells overexpressing the human NTCP gene; primary human hepatocytes) (human) (UniProt Q14973); assay: cell-based or functional assay
[3] = target: T1, human NTCP (Homo sapiens, UniProt Q14973); assay: Surface plasmon resonance binding to immobilized recombinant NTCP; conditions: single-cycle kinetics, 1:1 binding model, NTCP immobilized on NTA-Ni2+, read-out: Kd
T1 construct: made in house; host or cells: wheat germ cell-free protein synthesis system
T1 sequence (Q14973 1-349): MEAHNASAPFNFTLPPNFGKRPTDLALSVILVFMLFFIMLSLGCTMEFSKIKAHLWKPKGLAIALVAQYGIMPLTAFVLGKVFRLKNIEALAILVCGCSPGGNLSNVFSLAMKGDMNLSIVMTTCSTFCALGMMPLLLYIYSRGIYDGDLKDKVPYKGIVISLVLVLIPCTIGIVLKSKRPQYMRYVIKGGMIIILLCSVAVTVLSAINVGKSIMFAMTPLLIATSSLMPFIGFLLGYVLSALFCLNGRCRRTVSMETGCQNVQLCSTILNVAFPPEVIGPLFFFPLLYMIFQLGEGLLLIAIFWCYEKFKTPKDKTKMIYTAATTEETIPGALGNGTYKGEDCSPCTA
Experimental: (§1) FIG. 7 is a diagram showing the NTCP association constant of a peptide identified by first RaPID screening. A single-cycle reaction kinetics experiment was conducted using NTCP immobilized on surface (NTA-Ni^2+) involving varying concentrations of a cyclic peptide analyte. In each case, as shown in the drawing, the peptide was tested with 4-fold serial dilutions starting from the highest concentration of 200 or 1000 nM. A dissociation constant (KD) was determined using a 1:1 binding model.
as §1, with “9” for “7”, “focused library” for “first”, “association constant” for “reaction kinetics”
The association constant of each peptide for human NTCP was measured using a Biacore T200 apparatus (GE Healthcare Japan Corp.). The running buffer solution used was HBS-P+ (10 mM HEPES, 150 mM NaCl, and 0.05 vol % surfactant P20, pH 7.4) containing 0.1 vol % DMSO and 1 mM β-dodecyl-maltoside. 100 nM recombinant NTCP was immobilized on a NTA chip treated with Ni^2+ according to the manufacturer's instructions (baseline response: 1000 to 3000 refraction units). Peptides were injected as analytes at a flow rate of 60 μL/min, and association constants were modelled using a 1:1 binding model.

[4] = test system: HBV genotype D; type: cell-based, hepatitis B virus; conditions: primary human hepatocytes, purified HBV as inoculum, HBs antigen in culture supernatant; read-out: 50% inhibitory concentrations (IC50), HBs antigen
Experimental: FIG. 2 is a diagram showing the anti-HBV effect of a peptide from initial screening. FIG. 2(a) is a schematic diagram of a HepG2-hNTCP-C4 infection experiment. HepG2-hNTCP-C4 cells were pretreated with a peptide for 2 hours and subsequently inoculated with HBV for 16 hours in the presence of the peptide. Free HBV and peptide were washed off. Then, the cells were further cultured for 12 days in the absence of the peptide, and HBV infection was evaluated on the basis of measurement of HBs antigen in the culture supernatant. The filled boxes and the broken-line boxes depict periods for which the treatment was performed and periods for which the treatment was not performed, respectively. […] HBV infection was evaluated by monitoring HBs antigen secreted into a culture supernatant on 12 days after inoculation by ELISA. In FIG. 2(c), a cell survival rate was measured by MTT assay.
FIG. 3 is a diagram showing the anti-HBV effect of a peptide by focused library screening. […] HBV infection was evaluated by measurement of HBe antigen (a), and a cell survival rate (b) was evaluated by MTT assay as shown in FIG. 2.
HBV genotype D used in this study (FIGS. 1 to 3) was derived from the culture supernatant of Hep38.7-Tet cells, and prepared by a known method (the method described in Tsukuda, S. et al. Dysregulation of retinoic acid receptor diminishes hepatocyte permissiveness to hepatitis B virus infection through modulation of sodium taurocholate cotransporting polypeptide (NTCP) expression. The Journal of biological chemistry 290, 5673-5684 (2015), and Ogura, N., Watashi, K., Noguchi, T. & Wakita, T. Formation of covalently closed circular DNA in Hep38.7-Tet cells, a tetracycline inducible hepatitis B virus expression cell line. Biochemical and biophysical research communications 452, 315-321 (2014)). Purified HBV (FIG. 1(d)) was prepared by ultrafiltration to remove an excess of components in FBS and medium. HBV genotypes A, B, and C and genotype C having the L180M/S202G/M204V mutations (nucleoside analog-resistant HBV) or G145R substitution (vaccine-escape HBV) (FIG. 4(d)) were prepared from the culture supernatant of HepG2 cells transfected with the corresponding expression plasmid. HBV was inoculated at 12,000 (FIGS. 1(a), 1(b), and 1(d)), 1000 to 2000 (FIG. 2(b)) or 500 (FIGS. 3(a) and 4(d)) genome equivalents (GEq)/cell in the presence of 4% polyethylene glycol 8000 (PEG8000) and incubated at 37° C. for 16 hours by a known method (the method described in Watashi, K. et al. Interleukin-1 and tumor necrosis factor-alpha trigger restriction of hepatitis B virus infection via a cytidine deaminase activation-induced cytidine deaminase (AID). The Journal of biological chemistry 288, 31715-31727 (2013)).
HBe antigen was detected by a chemiluminescence immunoassay (CLIA) (LSI Medience Corp.). HBs antigen was quantified by enzyme-linked immunosorbent assay (ELISA) as described in a known method (the method described in Watashi, K. et al. Interleukin-1 and tumor necrosis factor-alpha trigger restriction of hepatitis B virus infection via a cytidine deaminase activation-induced cytidine deaminase (AID). The Journal of biological chemistry 288, 31715-31727 (2013)).
Subsequently, the present inventors evaluated the effect of the 10 peptides described above on HBV infection in primary human hepatocytes. […] HBV infection was evaluated by measuring HBs antigen in the culture supernatant. […]

[5] = test system: HepG2-hNTCP-C4 cells; conditions: HBV infection assay
Experimental: HBs antigen secreted into a culture supernatant (a) and HBc antigen in the cells (b) were detected by ELISA and an immunofluorescence method, respectively. A cell survival rate was measured by quantifying total cellular DNA (c). […] Data is indicated by mean±SD. Statistical significance was determined by use of Student's t test as to all numbers (*P<0.05, **P<0.01, N.S.: not significant).

C=C1[C@H](CO)[C@@H](O)C[C@@H]1n1cnc2c(=O)[nH]c(N)nc21 [entecavir]
HBV infection monitored by HBc antigen [1]: did not exhibit a significant reduction | HBV infection monitored by HBs antigen [1]: did not exhibit a significant reduction

cyclosporin A (peptide)
50% inhibitory concentration (IC50), HBs antigen in culture supernatant, HBV infection assay [2]: 3170 nM

CC[C@H](C)[C@@H]1NC(=O)[C@H](Cc2c[nH]c3ccccc23)NC(=O)[C@H]([C@@H](C)CC)NC(=O)[C@H](C(C)C)NC(=O)[C@H](Cc2ccc(O)cc2)NC(=O)CSC[C@@H](C(=O)N[C@H](C(N)=O)[C@@H](C)O)NC(=O)[C@H](Cc2ccc(O)cc2)NC(=O)[C@H](Cc2ccc(O)cc2)NC(=O)[C@H](Cc2ccccc2)NC(=O)[C@H](Cc2c[nH]cn2)NC(=O)[C@H](CC(N)=O)NC(=O)[C@@H]2CCCN2C(=O)[C@H](Cc2c[nH]c3ccccc23)NC1=O [WL4] ({CH2CO}-YVIWIWPNHFYYCT-NH2; thioether N-13)
Kd [3]: 42 nM | IC50 [4]: 660 ± 30 nM | solubility: ~30 µM (≈ 58.3 µg/mL) | cytotoxicity (cell survival rate, total cellular DNA) [5]: without marked cytotoxicity

CC[C@H](C)[C@@H]1NC(=O)[C@H](Cc2ccccc2)NC(=O)[C@@H](Cc2ccc(O)cc2)NC(=O)CSC[C@@H](C(=O)N[C@H](C(N)=O)[C@@H](C)O)NC(=O)[C@H](CO)NC(=O)[C@H](Cc2c[nH]c3ccccc23)NC(=O)[C@H]([C@@H](C)O)NC(=O)[C@H](Cc2c[nH]c3ccccc23)NC(=O)[C@H]([C@@H](C)O)NC(=O)[C@H](Cc2c[nH]c3ccccc23)NC(=O)[C@H]([C@@H](C)O)NC(=O)CN(C)C(=O)[C@H](C(C)C)NC(=O)[C@H]([C@@H](C)CC)NC1=O [WD1] ({CH2CO}-[dY]FIIV[Sar]TWTWTWSCT-NH2; thioether N-14)
Kd [3]: 15 nM | IC50 [4]: 850 ± 10 nM | solubility: ~30 µM (≈ 57.5 µg/mL) | cytotoxicity (cell survival rate, total cellular DNA) [5]: without marked cytotoxicity
